Reference: US20060069132A1, “Azolecarboxamide herbicides” (priority 2004, published 2006)

Columns and labels:
Assay in all cases: Test C pre-/postemergence herbicide test
[1] = test system: common (oilseed) sunflower; type: in vivo, Helianthus annuus; conditions: preemergence; for Plant response rating (0 = no effect, 100 = complete control), Sunflower: 62 g ai/ha
Source text: (§1) Seeds of plant species selected from bermudagrass (Cynodon dactylon (L.) Pers.), Surinam grass (Urochloa decumbens (Staph) R. D. Webster, previously named Brachiaria decumbens Stapf), cocklebur (Xanthium strumarium L.), corn (Zea mays L.), large crabgrass (Digitaria sanguinalis (L.) Scop.), woolly cupgrass (Eriochloa villosa (Thunb.) Kunth), giant foxtail (Setaria faberi Herrm.), goosegrass (Eleusine indica (L.) Gaertn.), johnsongrass (Sorghum halepense (L.) Pers.), kochia (Kochia scoparia (L.) Schrad.), lambsquarters (Chenopodium album L.), morningglory (Ipomoea coccinea L.), eastern black nightshade (Solanum ptycanthum Dunal), yellow nutsedge (Cyperus esculentus L.), pigweed (Amaranthus retroflexus L.), common ragweed (Ambrosia elatior L.), soybean (Glycine max (L.) Merr.), common (oilseed) sunflower (Helianthus annuus L.) and velvetleaf (Abutilon theophrasti Medik.) were planted and treated preemergence with test chemicals formulated in a non-phytotoxic solvent mixture which included a surfactant.
(§2) At the same time, plants selected from these crop and weed species and also winter barley (Hordeum vulgare L.), blackgrass (Alopecurus myosuroides Huds.), canarygrass (Phalaris minor Retz.), chickweed (Stellaria media (L.) Vill.), downy bromegrass (Bromus tectorum L.), green foxtail (Setaria viridis (L.) Beauv.), Italian ryegrass (Lolium multiflorum Lam.), wheat (Triticum aestivum L.), wild oat (Avenafatua L.) and windgrass (Apera spica-venti (L.) Beauv.) were treated with postemergence applications of some of the test chemicals formulated in the same manner. Plants ranged in height from 2 to 18 cm (1- to 4-leaf stage) for postemergence treatments. Plant species in the flooded paddy test consisted of rice (Oryza sativa), smallflower umbrella sedge (Cyperus difformis L.), ducksalad (Heteranthera limosa (Sw.) Willd.) and barnyardgrass (Echinochloa crus-galli (L.) Beauv.) grown to the 2-leaf stage for testing. Treated plants and controls were maintained in a greenhouse for 12 to 14 days, after which time all species were compared to controls and visually evaluated. Plant response ratings, summarized in Table C, are based on a scale of 0 to 100 where 0 is no effect and 100 is complete control. A dash (-) response means no test result.

lambsquarters = type: in vivo, Chenopodium album
Source text: as §1, §2

pigweed = type: in vivo, Amaranthus retroflexus
Source text: as §1, §2

common ragweed = type: in vivo, Ambrosia elatior; design: key to Plant response rating, Ragweed: 0 = no effect, 100 = complete control
Source text: as §1, §2

large crabgrass = type: in vivo, Digitaria sanguinalis
Source text: as §1, §2

[2] = 125 g ai/ha, scale 0 (no effect) to 100 (complete control), visual, 12 to 14 days
[3] = 31 g ai/ha, preemergence, scale 0 to 100
[4] = 125 g ai/ha, scale 0 (no effect) to 100 (complete control), visual, 12 to 14 days, preemergence
[5] = postemergence, 125 g ai/ha, scale 0 to 100
[6] = postemergence, 62 g ai/ha, scale 0 to 100
[7] = Postemergence, 125 g ai/ha, scale 0 to 100, 0 no effect, 100 complete control
[8] = 250 g ai/ha, scale 0 to 100 (0 no effect, 100 complete control), visual, 12 to 14 days, preemergence
[9] = Postemergence, 250 g ai/ha, scale 0 to 100, 0 no effect, 100 complete control
[10] = Postemergence, 500 g ai/ha, scale 0 to 100

Compound: CCNC(=O)c1cccc(NC(=O)c2cc(C(C)(C)C)nn2CCF)c1 [Compound 35]
- Plant response rating, Sunflower ([1]; 31 g ai/ha, scale 0 to 100): 10
- Plant response rating (0 = no effect, 100 = complete control), Sunflower [1]: 10
- Plant response rating, Sunflower [1, 2]: 10
- Plant response rating, Lambsquarters (lambsquarters; [3]): 0
- Plant response rating (0 = no effect, 100 = complete control), Lambsquarters (lambsquarters; 62 g ai/ha, preemergence): 90
- Plant response rating, Lambsquarters (lambsquarters; [4]): 100
- Plant response rating, Lambsquarters (lambsquarters; [5]): 90
- Plant response rating, Lambsquarters (lambsquarters; [6]): 90
- Plant response rating, Pigweed (pigweed; [3]): 0
- Plant response rating (0 = no effect, 100 = complete control), Pigweed (pigweed; 62 g ai/ha, preemergence): 90
- Plant response rating, Pigweed (pigweed; [4]): 100
- Plant response rating, Pigweed (pigweed; [5]): 100
- Plant response rating, Pigweed (pigweed; [6]): 100
- Plant response rating, Ragweed (common ragweed; [3]): 0
- Plant response rating (0 = no effect, 100 = complete control), Ragweed (common ragweed; 62 g ai/ha, preemergence): 10
- Plant response rating, Ragweed (common ragweed; [4]): 80
- Plant response rating, Ragweed (common ragweed; [5]): 50
- Plant response rating, Ragweed (common ragweed; [6]): 50
- Plant response rating, Crabgrass, Large (large crabgrass; [3]): 0
- Plant response rating (0 = no effect, 100 = complete control), Crabgrass, Large (large crabgrass; 62 g ai/ha, preemergence): 10
- Plant response rating, Crabgrass, Large (large crabgrass; [4]): 50
- Plant response rating, Crabgrass, Large (large crabgrass; [7]): 40
- Plant response rating, Crabgrass, Large (large crabgrass; [6]): 40

Compound: CCn1nc(C(C)(C)C)cc1C(=O)Nc1cccc(C(=O)NC2CC2)c1 [Compound 44]
- Plant response rating (0 = no effect, 100 = complete control), Sunflower [1]: 0
- Plant response rating, Sunflower [1, 2]: 0
- Plant response rating, Sunflower ([1]; 250 g ai/ha, scale 0 to 100 (0 no effect, 100 complete control), visual, 12 to 14 days): 0
- Plant response rating (0 = no effect, 100 = complete control), Lambsquarters (lambsquarters; 62 g ai/ha, preemergence): 90
- Plant response rating, Lambsquarters (lambsquarters; [4]): 100
- Plant response rating, Lambsquarters (lambsquarters; [8]): 100
- Plant response rating, Lambsquarters (lambsquarters; [9]): 90
- Plant response rating, Lambsquarters (lambsquarters; [6]): 90
- Plant response rating (0 = no effect, 100 = complete control), Pigweed (pigweed; 62 g ai/ha, preemergence): 10
- Plant response rating, Pigweed (pigweed; [4]): 70
- Plant response rating, Pigweed (pigweed; [8]): 90
- Plant response rating, Pigweed (pigweed; [9]): 100
- Plant response rating, Pigweed (pigweed; [6]): 100
- Plant response rating (0 = no effect, 100 = complete control), Ragweed (common ragweed; 62 g ai/ha, preemergence): 0
- Plant response rating, Ragweed (common ragweed; [4]): 30
- Plant response rating, Ragweed (common ragweed; [8]): 70
- Plant response rating, Ragweed (common ragweed; [9]): 90
- Plant response rating, Ragweed (common ragweed; [6]): 50
- Plant response rating (0 = no effect, 100 = complete control), Crabgrass, Large (large crabgrass; 62 g ai/ha, preemergence): 0
- Plant response rating, Crabgrass, Large (large crabgrass; [4]): 20
- Plant response rating, Crabgrass, Large (large crabgrass; [8]): 20
- Plant response rating, Crabgrass, Large (large crabgrass; [7]): 90
- Plant response rating, Crabgrass, Large (large crabgrass; [9]): 90
- Plant response rating, Crabgrass, Large (large crabgrass; [6]): 60

Compound: CCn1nc(C(C)(C)C)cc1C(=O)Nc1cccc(C(=O)OCCF)c1 [Compound 82, 2-fluoroethyl 3-[[[3-(1,1-dimethylethyl)-1-ethyl-1H-pyrazol-5-yl]-carbonyl]amino]benzoate]
- pest or weed control at 250 g/ha (lambsquarters; Chenopodium album, post-emergence, Postemergence, 250 g ai/ha, scale 0 to 100, 0 no effect, 100 complete control, read-out: Plant response rating, Lambsquarters): 80%
- pest or weed control at 125 g/ha (lambsquarters; Chenopodium album, post-emergence, postemergence, 125 g ai/ha, scale 0 to 100, read-out: Plant response rating, Lambsquarters): 50%
- pest or weed control at 62 g/ha (lambsquarters; Chenopodium album, post-emergence, postemergence, 62 g ai/ha, scale 0 to 100, read-out: Plant response rating, Lambsquarters): 30%
- Lambsquarters plant response rating (lambsquarters; [10]): 100
- pest or weed control at 250 g/ha (pigweed; Amaranthus retroflexus, post-emergence, Postemergence, 250 g ai/ha, scale 0 to 100, 0 no effect, 100 complete control, read-out: Plant response rating, Pigweed): 100%
- pest or weed control at 125 g/ha (pigweed; Amaranthus retroflexus, post-emergence, postemergence, 125 g ai/ha, scale 0 to 100, read-out: Plant response rating, Pigweed): 100%
- pest or weed control at 62 g/ha (pigweed; Amaranthus retroflexus, post-emergence, postemergence, 62 g ai/ha, scale 0 to 100, read-out: Plant response rating, Pigweed): 85%
- Pigweed plant response rating (pigweed; [10]): 100
- pest or weed control at 250 g/ha (common ragweed; Ambrosia artemisiifolia, post-emergence, Postemergence, 250 g ai/ha, scale 0 to 100, 0 no effect, 100 complete control, read-out: Plant response rating, Ragweed): 10%
- pest or weed control at 125 g/ha (common ragweed; Ambrosia artemisiifolia, post-emergence, postemergence, 125 g ai/ha, scale 0 to 100, read-out: Plant response rating, Ragweed): 0%
- pest or weed control at 62 g/ha (common ragweed; Ambrosia artemisiifolia, post-emergence, postemergence, 62 g ai/ha, scale 0 to 100, read-out: Plant response rating, Ragweed): 0%
- Ragweed plant response rating (common ragweed; [10]): 30
- pest or weed control at 250 g/ha (large crabgrass; Digitaria sanguinalis, post-emergence, 312 h, Postemergence, 250 g ai/ha, scale 0 to 100, 0 no effect, 100 complete control, read-out: Plant response rating, Crabgrass, Large): 0%
- pest or weed control at 125 g/ha (large crabgrass; Digitaria sanguinalis, post-emergence, 312 h, postemergence, 125 g ai/ha, scale 0 to 100, read-out: Plant response rating, Crabgrass, Large): 0%
- pest or weed control at 62 g/ha (large crabgrass; Digitaria sanguinalis, post-emergence, 312 h, postemergence, 62 g ai/ha, scale 0 to 100, read-out: Plant response rating, Crabgrass, Large): 0%
- Crabgrass, Large plant response rating (large crabgrass; [10]): 60
